Source: patent US20170101383A1, “DIAMINOTRIAZINE DERIVATIVES AS HERBICIDES” (BASF SE, priority 2014, published 2017)

What was measured:
[1] = system: Amaranthus retroflexus; assay: greenhouse pre-emergence treatment, AMARE; assay type: in vivo; conditions: scale 0 to 100
Text: (§1) The seeds of the test plants were sown separately for each species. For the pre-emergence treatment, the active ingredients, which had been suspended or emulsified in water, were applied directly after sowing by means of finely distributing nozzles. The containers were irrigated gently to promote germination and growth and subsequently covered with transparent plastic hoods until the plants had rooted. This cover caused uniform germination of the test plants, unless this had been impaired by the active ingredients. Depending on the species, the plants were kept at 10-25° C. or 20-35° C., respectively. The test period extended over 2 to 4 weeks. During this time, the plants were tended, and their response to the individual treatments was evaluated. Evaluation was carried out using a scale from 0 to 100. 100 means no emergence of the plants, or complete destruction of at least the aerial moieties, and 0 means no damage, or normal course of growth. A moderate herbicidal activity is given at values of at least 60, a good herbicidal activity is given at values of at least 70, and a very good herbicidal activity is given at values of at least 85. The plants used in the greenhouse experiments were of the following species: [table]

[2] = system: Echinocloa crus-galli; assay: greenhouse post-emergence treatment, ECHCG; assay type: in vivo; conditions: scale 0 to 100
Text: (§2) The seeds of the test plants were sown separately for each species. For the post-emergence treatment, the test plants were first grown to a height of 3 to 15 cm, depending on the plant habit, and only then treated with the active ingredients which had been suspended or emulsified in water. For this purpose, the test plants were either sown directly and grown in the same containers, or they were first grown separately as seedlings and transplanted into the test containers a few days prior to treatment. Depending on the species, the plants were kept at 10-25° C. or 20-35° C., respectively. The test period extended over 2 to 4 weeks. During this time, the plants were tended, and their response to the individual treatments was evaluated. Evaluation was carried out using a scale from 0 to 100. 100 means no emergence of the plants, or complete destruction of at least the aerial moieties, and 0 means no damage, or normal course of growth. A moderate herbicidal activity is given at values of at least 60, a good herbicidal activity is given at values of at least 70, and a very good herbicidal activity is given at values of at least 85. The plants used in the greenhouse experiments were of the following species: [table]

[3] = system: Alopecurus myosuroides; assay: greenhouse pre-emergence treatment, ALOMY; assay type: in vivo; conditions: scale 0 to 100
Text: as §1

[4] = system: Polygonum convolvulus; assay: greenhouse post-emergence treatment, POLCO; assay type: in vivo; conditions: 0.500 kg/ha, scale 0 to 100
Text: as §2

[5] = system: Apera spica-venti; assay: greenhouse pre-emergence treatment, APESV; assay type: in vivo; conditions: scale 0 to 100
Text: as §1

[6] = system: Setaria viridis; assay: greenhouse post-emergence treatment, SETVI; assay type: in vivo; conditions: 0.500 kg/ha, scale 0 to 100
Text: as §2

[7] = system: Viola arvensis; assay: greenhouse post-emergence treatment, VIOAR; assay type: in vivo; conditions: 0.500 kg/ha, scale 0 to 100
Text: as §2

[8] = system: Echinocloa crus-galli; assay: greenhouse pre-emergence treatment, ECHCG; assay type: in vivo; conditions: scale 0 to 100
Text: as §1

[9] = system: Stellaria media; assay: greenhouse post-emergence treatment, STEME; assay type: in vivo; conditions: 0.500 kg/ha, scale 0 to 100
Text: as §2

[10] = system: Setaria faberi; assay: greenhouse pre-emergence treatment, SETFA; assay type: in vivo; conditions: scale 0 to 100
Text: as §1

[11] = system: Viola arvensis; assay: greenhouse pre-emergence treatment, VIOAR; assay type: in vivo; conditions: 0.500 kg/ha, scale 0 to 100
Text: as §1

[12] = system: Lamium purpureum; assay: greenhouse pre-emergence treatment, LAMPU; assay type: in vivo; conditions: 0.500 kg/ha, scale 0 to 100
Text: as §1

[13] = system: Stellaria media; assay: greenhouse pre-emergence treatment, STEME; assay type: in vivo; conditions: 0.500 kg/ha, scale 0 to 100
Text: as §1

[14] = system: Setaria faberi; assay: greenhouse post-emergence treatment, SETFA; assay type: in vivo; conditions: scale 0 to 100
Text: as §2

[15] = system: Amaranthus retroflexus; assay: greenhouse post-emergence treatment, AMARE; assay type: in vivo; conditions: Amaranthus retroflexus, scale 0 to 100, read-out: herbicidal activity against AMARE; for pest or weed control at 500 g/ha: 0.500 kg/ha
Text: as §2

[16] = system: Abutilon theophrasti; assay: greenhouse pre-emergence treatment, ABUTH; assay type: in vivo; conditions: 0.500 kg/ha, scale 0 to 100
Text: as §1

[17] = system: Abutilon theophrasti; assay: greenhouse post-emergence treatment, ABUTH; assay type: in vivo; conditions: 0.500 kg/ha, scale 0 to 100
Text: as §2

[18] = known from Archiv der Pharmazie, 1984, Vol. 317, S. 754; cited from earlier work

Compound: COc1nc(N)nc(Nc2c(F)c(F)c(F)c(F)c2F)n1 [Example 2, 6-methoxy-N2-(2,3,4,5,6-pentafluorophenyl)-1,3,5-triazine-2,4-diamine]
- herbicidal activity against AMARE ([1]; 0.125 kg/ha): good to very good
- herbicidal activity against ECHCG ([2]; 0.500 kg/ha): very good (a very good herbicidal activity is given at values of at least 85)
- herbicidal activity against ALOMY ([3]; 0.125 kg/ha): good to very good
- herbicidal activity against POLCO [4]: very good (a very good herbicidal activity is given at values of at least 85)
- herbicidal activity against APESV ([5]; 0.125 kg/ha): good to very good
- herbicidal activity against SETVI [6]: very good (a very good herbicidal activity is given at values of at least 85)

Compound: Nc1nc(Nc2c(F)c(F)c(F)c(F)c2F)nc(OCC(F)(F)F)n1 [Example 3]
- herbicidal activity against AMARE ([1]; 1.000 kg/ha): very good (a very good herbicidal activity is given at values of at least 85)
- herbicidal activity against VIOAR [7]: very good (a very good herbicidal activity is given at values of at least 85)
- herbicidal activity against SETVI [6]: very good (a very good herbicidal activity is given at values of at least 85)
- herbicidal activity against ECHCG ([8]; 1.000 kg/ha): very good (a very good herbicidal activity is given at values of at least 85)
- herbicidal activity against STEME [9]: very good (a very good herbicidal activity is given at values of at least 85)
- herbicidal activity against SETFA ([10]; 1.000 kg/ha): very good (a very good herbicidal activity is given at values of at least 85)

Compound: COc1nc(N)nc(Nc2c(F)c(F)cc(F)c2F)n1 [Example 4]
- herbicidal activity against VIOAR [11]: very good (a very good herbicidal activity is given at values of at least 85)
- herbicidal activity against LAMPU [12]: very good (a very good herbicidal activity is given at values of at least 85)
- herbicidal activity against STEME [13]: very good (a very good herbicidal activity is given at values of at least 85)

Compound: Nc1nc(Nc2c(F)c(F)c(F)c(F)c2F)nc(N2CCCCC2)n1 [Example 5]
- herbicidal activity against AMARE ([1]; 1.000 kg/ha): very good (a very good herbicidal activity is given at values of at least 85)
- herbicidal activity against ECHCG ([2]; 1.000 kg/ha): very good (a very good herbicidal activity is given at values of at least 85)
- herbicidal activity against SETFA ([14]; 1.000 kg/ha): very good (a very good herbicidal activity is given at values of at least 85)
- herbicidal activity against ALOMY ([3]; 1.000 kg/ha): very good (a very good herbicidal activity is given at values of at least 85)
- herbicidal activity against APESV ([5]; 1.000 kg/ha): very good (a very good herbicidal activity is given at values of at least 85)
- pest or weed control at 1000 g/ha ([15]; 1.000 kg/ha): ≥ 85%

Compound: CC1CCC(C)N1c1nc(N)nc(Nc2c(F)c(F)cc(F)c2F)n1 (centres unmarked) [Example 18]
- herbicidal activity against AMARE ([1]; 0.500 kg/ha): very good (a very good herbicidal activity is given at values of at least 85)
- herbicidal activity against APESV ([5]; 0.500 kg/ha): very good (a very good herbicidal activity is given at values of at least 85)
- herbicidal activity against ECHCG ([8]; 0.500 kg/ha): very good (a very good herbicidal activity is given at values of at least 85)

Compound: CON(C)c1nc(N)nc(Nc2c(F)c(F)cc(F)c2F)n1 [Example 28]
- herbicidal activity against AMARE ([1]; 0.500 kg/ha): very good (a very good herbicidal activity is given at values of at least 85)
- herbicidal activity against ABUTH [16]: very good (a very good herbicidal activity is given at values of at least 85)
- herbicidal activity against SETFA ([14]; 0.500 kg/ha): very good (a very good herbicidal activity is given at values of at least 85)
- herbicidal activity against ALOMY ([3]; 0.500 kg/ha): very good (a very good herbicidal activity is given at values of at least 85)
- herbicidal activity against APESV ([5]; 0.500 kg/ha): very good (a very good herbicidal activity is given at values of at least 85)
- pest or weed control at 500 g/ha [15]: ≥ 85%
- herbicidal activity against ABUTH [17]: very good (a very good herbicidal activity is given at values of at least 85)
- herbicidal activity against SETFA ([10]; 0.500 kg/ha): very good (a very good herbicidal activity is given at values of at least 85)

Compound: Nc1nc(Nc2c(F)c(F)c(F)c(F)c2F)nc(N2CCC2)n1 [Example 33]
- herbicidal activity against AMARE ([1]; 0.500 kg/ha): very good (a very good herbicidal activity is given at values of at least 85)
- herbicidal activity against ECHCG ([2]; 0.500 kg/ha): very good (a very good herbicidal activity is given at values of at least 85)
- herbicidal activity against ABUTH [16]: very good (a very good herbicidal activity is given at values of at least 85)
- herbicidal activity against ECHCG ([8]; 0.500 kg/ha): very good (a very good herbicidal activity is given at values of at least 85)
- pest or weed control at 500 g/ha [15]: ≥ 85%
- herbicidal activity against ABUTH [17]: very good (a very good herbicidal activity is given at values of at least 85)
- herbicidal activity against SETFA ([10]; 0.500 kg/ha): very good (a very good herbicidal activity is given at values of at least 85)

Compound: Nc1nc(Nc2c(F)c(F)cc(F)c2F)nc(N2CCC2)n1 [Example 34]
- herbicidal activity against AMARE ([1]; 0.500 kg/ha): very good (a very good herbicidal activity is given at values of at least 85)
- herbicidal activity against ECHCG ([2]; 0.500 kg/ha): very good (a very good herbicidal activity is given at values of at least 85)
- herbicidal activity against ABUTH [16]: very good (a very good herbicidal activity is given at values of at least 85)
- herbicidal activity against ECHCG ([8]; 0.500 kg/ha): very good (a very good herbicidal activity is given at values of at least 85)
- pest or weed control at 500 g/ha [15]: ≥ 85%
- herbicidal activity against ABUTH [17]: very good (a very good herbicidal activity is given at values of at least 85)
- herbicidal activity against SETFA ([10]; 0.500 kg/ha): very good (a very good herbicidal activity is given at values of at least 85)

Compound: CC(C)Nc1nc(Nc2ccccc2F)nc(NC(C)C)n1 [N6-(2-fluorophenyl)-N2,N4-diisopropyl-1,3,5-triazine-2,4,6-triamine]
- trichomonacidal activity [18]: shows trichomonacidal activity
